Each structure is given as a SMILES string. Values after ≈ are worked out from the molar mass of the structure shown. “Also recorded” adds a separate entry of the source.

Data set [1] deals with influenza virus, Adachi strain of A2-type. Nature of the data set: microbe, parasite or virus in culture. The note with it: for virucidal index: 50% toxicity concentration / 50% virucidal concentration; for EC50: 2 h, read-out: 50% Virucidal Concentration. It is filed as cell-based.
The subject of data set [2] is rice blast fungus (Pyricularia oryzae). It is filed as in vivo. Conditions: low dosage; for Protective Value: 100 ppm; for controlling effect against rice blast: Table 4.
The nature of data set [3]: in vitro. The note with it: chicken, chorioallantoic membrane.
Data set [4] deals with influenza virus, Adachi strain of A2-type. In words: microbe, parasite or virus in culture. Conditions: for virus proliferation-inhibiting index: 50% toxicity concentration / 50% virus proliferation-inhibiting concentration, 2880 min; for IC50: 48 h, read-out: 50% Virus Proliferation-Inhibiting Concentration. It is filed as cell-based.
For data set [5], the system named is plant pathogenic fungi. Conditions: foregoing literature; cited from earlier work.
For data set [6], the system named is rice blast fungus (Pyricularia oryzae). In words: whole plant or invertebrate. It is filed as in vivo. The note with it: 168 h, read-out: Protective Value.
Data set [7] is described as follows: acute toxicity (LD50) by intraperitoneal administration to mice. Conditions: mouse, in vivo, ip. An excerpt: In evaluating acute toxicity (LD50 value) of the compounds of this invention, compound number 4 and compound number 25 of Table 1, respectively, were selected and examined for their acute toxicities by intraperitoneal administration to mice.
The subject of data set [8] is Pyricularia oryzae. Conditions: Bokin Bobai, Vol. 9, No. 12, pages 551 to 561 (1981); cited from earlier work.

For `CCCCSC(=N)NN=Cc1ccc(OCC)cc1` [Compound 19], in data set [1], the virucidal index was 3.2 and the EC50 was 316 µg/mL (≈ 1130 µM). In addition, in data set [2], the “Protective Value” is reported as 93% and the “controlling effect against rice blast” value is listed as “very excellent controlling effects”. The same molecule gave a CC50 at 48 h in data set [3] of more than 1000 µg/mL. Moreover, in data set [4], the virus proliferation-inhibiting index is listed as more than 25.2 and the IC50 was 39.7 µg/mL (≈ 142 µM). The “effect against plant pathogenic fungi in vitro” value (“effect … in vitro” below) in data set [5] was “never been observed to have effects of inhibiting proliferation of any of the pathogenic fungi”. Besides, in data set [6], the pest or weed control at 400 ppm was 100%.
`CCOc1ccc(C=CC(C)=NNC(=N)SC)cc1` [Compound 43]: in data set [1], the virucidal index worked out at 3.2 and the EC50 amounted to 316 µg/mL (≈ 1140 µM). In addition, in data set [2], the “Protective Value” is given as 97% and the “controlling effect against rice blast” value is recorded as “very excellent controlling effects”. Besides, the CC50 at 48 h in data set [3] was more than 1000 µg/mL. Also, in data set [4], the virus proliferation-inhibiting index is on record as 7.1 and the IC50 is 141 µg/mL (≈ 508 µM). Also, the “effect … in vitro” value in data set [5] is “never been observed to have effects of inhibiting proliferation of any of the pathogenic fungi; also recorded: inactive against all of the plant pathogenic fungi”. For the same molecule, the pest or weed control at 400 ppm in data set [6] was 100%.
With `CSC(=N)NN=C(C)c1ccc(Cl)cc1` [Compound 25], in data set [1], the virucidal index is reported as 1.7 and the EC50 is 215 µg/mL (≈ 889 µM). Also, the LD50 (usually the dose expected to kill half of the subjects tested) in data set [7] is 150 mg/kg. Also, the CC50 at 48 h in data set [3] stood at 354 µg/mL (≈ 1470 µM). In data set [4], the virus proliferation-inhibiting index is listed as 24.6 and the IC50 was 14.4 µg/mL (≈ 59.6 µM). The pest or weed control at 400 ppm in data set [6] turned out to be 100%.
Take `CSC(=N)NN=C(C)c1ccc(Cl)c(Cl)c1` [Compound 30]: the “MIC Value in Literature” value in data set [8] is 12.5 µg/mL (≈ 45.3 µM). In data set [2], the “Protective Value” was found to be 66% and the “controlling effect against rice blast” value is on record as “low protective values”. The pest or weed control at 400 ppm in data set [6] came to 88%.
Take `CCOc1ccc(C=NNC(=N)SC)cc1` [Compound 18]: in data set [2], the “Protective Value” came out at 99% and the “controlling effect against rice blast” value is recorded as “very excellent controlling effects”. Moreover, the “effect … in vitro” value in data set [5] was “never been observed to have effects of inhibiting proliferation of any of the pathogenic fungi”. Moreover, in data set [6], the pest or weed control at 400 ppm amounted to 100%.
On to `CN=C(NN=Cc1ccc(Cl)c(Cl)c1)SC` [Compound 10], for which, in data set [8], the “MIC Value in Literature” value was 12.5 µg/mL (≈ 45.3 µM). Moreover, in data set [2], the “Protective Value” was 67% and the “controlling effect against rice blast” value is “low protective values”. Besides, the pest or weed control at 400 ppm in data set [6] was found to be 88%.
For `CCCCCCCCCCCCOc1ccc(C=CC(C)=NNC(=N)SC)cc1` [Compound 46], in data set [1], the virucidal index is listed as more than 31.6 and the EC50 is 31.6 µg/mL (≈ 75.7 µM). Further, the CC50 at 48 h in data set [3] is more than 1000 µg/mL. In data set [4], the virus proliferation-inhibiting index was more than 11.7 and the IC50 was 85.2 µg/mL (≈ 204 µM). The pest or weed control at 400 ppm in data set [6] is 77%.
As for `CSC(=N)NN=C(C)c1ccc(Cl)cc1Cl` [Compound 29], in data set [1], the virucidal index is recorded as 1.8 and the EC50 came to 100 µg/mL (≈ 362 µM). Moreover, the CC50 at 48 h in data set [3] was found to be 180 µg/mL (≈ 652 µM). Also, in data set [4], the virus proliferation-inhibiting index is reported as 7.7 and the IC50 was 23.2 µg/mL (≈ 84 µM). Also, the pest or weed control at 400 ppm in data set [6] is 90%.
`CCCCCOc1ccc(C(C)=NNC(=N)SC)cc1` [Compound 38] yielded a CC50 at 48 h in data set [3] of more than 1000 µg/mL. Moreover, in data set [4], the virus proliferation-inhibiting index is more than 8.0 and the IC50 was 126 µg/mL (≈ 429 µM). Also, in data set [5], the “effect … in vitro” value was “inactive against all of the plant pathogenic fungi”. In addition, the pest or weed control at 400 ppm in data set [6] is 100%.
Take `CCCCOc1ccc(C=NNC(=N)SC)cc1` [Compound 20]: in data set [2], the “Protective Value” worked out at 100% and the “controlling effect against rice blast” value is reported as “very excellent controlling effects”. Besides, in data set [5], the “effect … in vitro” value was “never been observed to have effects of inhibiting proliferation of any of the pathogenic fungi”. Further, the pest or weed control at 400 ppm in data set [6] was 99%.
As for `CSC(=N)NN=Cc1cccc(Cl)c1` [Compound 4], in data set [1], the virucidal index worked out at 5.7 and the EC50 was 175 µg/mL (≈ 768 µM). Further, in data set [7], the LD50 amounted to 200 mg/kg. Also, in data set [3], the CC50 at 48 h is more than 1000 µg/mL. In addition, in data set [4], the virus proliferation-inhibiting index was more than 54.0 and the IC50 was determined as 18.5 µg/mL (≈ 81.2 µM). Further, the pest or weed control at 400 ppm in data set [6] was determined as 100%.

The values are drawn from patent US4598095A (priority 1982, dated 1986).
